In patent publication US6291470A, “Indole derivatives process for producing the same and medicinal uses of the same” (Toray Industries, Inc., priority 1992, dated 2001):
Like-named read-outs stand apart in the source and are kept apart here.

Molecular target: T1, δ-opioid receptor (Mus musculus, UniProt P32300)
T1 construct: from tissue; host or cells: vas deferens of male ddy mice
Assay: δ-opioid antagonist activity against DPDPE in mouse vas deferens (MVD)
Details: for Ratio of IC50 Values: DPDPE IC50 with/without 100 nM test compound; for Ratio of IC50 Values / Kb: 20 min; for Kb: against DPDPE, test compound 100 nM
Protocol: Using mouse vas deferens (MVD), the antagonist activity against DPDPE which is a δ-opioid agonist was checked.
In this experiment, ddy male mice were used. In a Magnus' tube which is filled with Krebes-Henseleit solution (NaCl […]; KCl 4.7 mM; CaCl2 2.5 mM; KH2 PO4 1.1 mM; NaHCO3 25 mM; glucose 11 mM) kept at 37° C., and into which an atmosphere consisting of 5% carbon dioxide and 95% oxygen was flown, vas deferens taken from the animals was suspended. Electric stimulation was applied through ring-shaped platinum electrodes mounted on the upper and lower portions of the tube at a frequency of 0.1 Hz and 5.0 mS duration. The contraction of the tissue was recorded on polygraph using isometric transducer.
Then 100 nM of the test compound was added. Twenty minutes later, DPDPE was begun to be added cumulatively. The ratio of IC50 values in the presence and absence of the test compound, Ke value (the molar concentration of the test compound necessary for translating the dose-effect curve to the curve of twice dose) and pA2 value were determined. The pA2 value was determined by the method of Shild et al (Shild, H. O., Br. J. Pharmac. Chamotehr., 4, 277 (1949)). That is, the logarithm of the test compound (log[test compound]) was plotted along the abscissa and the logarithm of the value obtained by subtracting 1 from the ratio of IC50 values was plotted in the presence and absence of the test compound [log(dose ratio-1)] along the ordinate. The pA2 value was determined from the value on the abscissa when the value on the ordinate of the obtained line is 0.

T1 sequence (P32300 whole entry): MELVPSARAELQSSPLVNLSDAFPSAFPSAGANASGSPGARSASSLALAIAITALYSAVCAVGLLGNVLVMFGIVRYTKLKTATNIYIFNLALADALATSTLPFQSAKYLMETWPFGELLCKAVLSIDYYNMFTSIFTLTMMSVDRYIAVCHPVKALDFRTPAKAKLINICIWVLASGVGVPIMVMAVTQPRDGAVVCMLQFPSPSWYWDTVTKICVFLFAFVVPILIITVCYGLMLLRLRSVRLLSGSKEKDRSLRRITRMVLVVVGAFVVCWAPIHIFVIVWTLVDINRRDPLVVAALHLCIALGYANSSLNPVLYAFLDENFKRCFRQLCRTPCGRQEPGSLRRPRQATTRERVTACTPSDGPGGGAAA

SMILES	Ratio of IC50 Values	Kb (read-out: Ke) [nM]	Kb (read-out: pA2 (converted)) [nM]	δ-antagonist activity relative to NTI (times that of NTI)
C=CCN1CC[C@]23c4c5ccc(O)c4O[C@H]2c2[nH]c4cccc(C(=O)OC)c4c2C[C@@]3(O)[C@H]1C5 [Compound 114, 17-allyl-6,7-didehydro-4,5α-epoxy-3,14β-dihydroxy-4'-methoxycarbonyl-6,7-2',3'-indolomorphinan]	20.7	5.08	–	–
COC(=O)c1cccc2[nH]c3c(c12)C[C@@]1(O)[C@H]2Cc4ccc(O)c5c4[C@@]1(CCN2CC1CC1)[C@H]3O5 [Compound 76, 17-cyclopropylmethyl-6,7-didehydro-4,5α-epoxy-3,14β-dihydroxy-4'-methoxycarbonyl-6,7-2',3'-indolomorphinan]	6.82	17.2	–	–
NS(=O)(=O)c1ccc2[nH]c3c(c2c1)C[C@@]1(O)[C@H]2Cc4ccc(O)c5c4[C@@]1(CCN2CC1CC1)[C@H]3O5 [Compound 5, 17-cyclopropylmethyl-6,7-didehydro-4,5α-epoxy-3,14β-dihydroxy-5'-sulfamoyl-6,7-2',3'-indolomorphinan]	4.36	29.8	–	–
Oc1ccc2c3c1O[C@H]1c4[nH]c5ccc(I)cc5c4C[C@@]4(O)[C@@H](C2)N(CC2CC2)CC[C@]314 [Compound 1, 17-cyclopropylmethyl-6,7-didehydro-4,5α-epoxy-3,14β-dihydroxy-5'-iodo-6,7-2',3'-indolomorphinan]	8.88	12.7	–	–
Oc1ccc2c3c1O[C@H]1c4[nH]c5c(C(F)(F)F)cccc5c4C[C@@]4(O)[C@@H](C2)N(CC2CC2)CC[C@]314 [Compound 118, 17-cyclopropylmethyl-6,7-didehydro-4,5α-epoxy-3,14β-dihydroxy-7'-trifluoromethyl-6,7-2',3'-indolomorphinan]	52.9	1.93	–	–
CS(=O)(=O)c1ccc2[nH]c3c(c2c1)C[C@@]1(O)[C@H]2Cc4ccc(O)c5c4[C@@]1(CCN2CC1CC1)[C@H]3O5 [Compound 6, 17-cyclopropylmethyl-6,7-didehydro-4,5α-epoxy-3,14β-dihydroxy-5'-methylsulfonyl-6,7-2',3'-indolomorphinan]	12.6	8.62	–	–
CN(C)S(=O)(=O)c1ccc2c3c([nH]c2c1)[C@@H]1Oc2c(O)ccc4c2[C@@]12CCN(CC1CC1)[C@H](C4)[C@]2(O)C3 [Compound 51, 17-cyclopropylmethyl-6,7-didehydro-4,5α-epoxy-3,14β-dihydroxy-6'-(N,N-dimethylsulfamoyl)-6,7-2',3'-indolomorphinan]	33.2	3.11	2.69	–
O=[N+]([O-])c1ccc2c3c([nH]c2c1)[C@@H]1Oc2c(O)ccc4c2[C@@]12CCN(CC1CC1)[C@H](C4)[C@]2(O)C3 [Compound 79, 17-cyclopropylmethyl-6,7-didehydro-4,5α-epoxy-3,14β-dihydroxy-6'-nitro-6,7-2',3'-indolomorphinan]	60.6	1.68	–	–
OCCc1cccc2[nH]c3c(c12)C[C@@]1(O)[C@H]2Cc4ccc(O)c5c4[C@@]1(CCN2CC1CC1)[C@H]3O5 [Compound 40, 17-cyclopropylmethyl-6,7-didehydro-4,5α-epoxy-3, 14β-dihydroxy-4'-(2-hydroxyethyl)-6,7-2',3'-indolomorphinan]	4.60	27.8	–	–
COC(=O)c1ccc2c3c([nH]c2c1)[C@@H]1Oc2c(O)ccc4c2[C@@]12CCN(CC1CC1)[C@H](C4)[C@]2(O)C3 [Compound 77, 17-cyclopropylmethyl-6,7-didehydro-4,5α-epoxy-3,14β-dihydroxy-6'-methoxycarbonyl-6,7-2',3'-indolomorphinan]	742	0.13	–	1.3-1.6 times
Oc1ccc2c3c1O[C@H]1c4[nH]c5ccc(OC(F)(F)F)cc5c4C[C@@]4(O)[C@@H](C2)N(CC2CC2)CC[C@]314 [Compound 4, 17-cyclopropylmethyl-6,7-didehydro-4,5α-epoxy-3,14β-dihydroxy-5'-trifluoromethoxy-6,7-2',3'-indolomorphinan]	7.95	14.4	–	–
